Experiments:
FADD−/− Jurkat cells = test: Necroptosis inhibition assay, TNF-α-induced necroptosis (CellTiter-Glo 2.0); format: cell-based, human; conditions: TNF-α 15 ng/mL; for Necroptosis inhibition assay (Rescue %) 1 μM: compound 1 μM; for Necroptosis inhibition assay (Rescue %) 10 μM: compound 10 μM
Outline: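 Necroptosis was triggered by TNF-α at 15 ng/mL final following 30 minutes of compound exposure (0.1, 1 or 10 μM final). Incubation ran 20 to 24 hours at 37° C under 5% CO2; cell ATP was then quantified by luminescence.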

MLKL [1] = target: T1, MLKL (Homo sapiens, UniProt Q8NB16); test: MLKL degradation assay in HepG2 cell line (western blot); format: cell-based; design: endogenous in cells; host or cells: HepG2 or HaCaT; conditions: cell line not given; for Degradation assay (Degradation %) 1 μM: compound 1 μM; for Degradation assay (Degradation %) 10 μM: compound 10 μM
T1 sequence (Q8NB16 1-471): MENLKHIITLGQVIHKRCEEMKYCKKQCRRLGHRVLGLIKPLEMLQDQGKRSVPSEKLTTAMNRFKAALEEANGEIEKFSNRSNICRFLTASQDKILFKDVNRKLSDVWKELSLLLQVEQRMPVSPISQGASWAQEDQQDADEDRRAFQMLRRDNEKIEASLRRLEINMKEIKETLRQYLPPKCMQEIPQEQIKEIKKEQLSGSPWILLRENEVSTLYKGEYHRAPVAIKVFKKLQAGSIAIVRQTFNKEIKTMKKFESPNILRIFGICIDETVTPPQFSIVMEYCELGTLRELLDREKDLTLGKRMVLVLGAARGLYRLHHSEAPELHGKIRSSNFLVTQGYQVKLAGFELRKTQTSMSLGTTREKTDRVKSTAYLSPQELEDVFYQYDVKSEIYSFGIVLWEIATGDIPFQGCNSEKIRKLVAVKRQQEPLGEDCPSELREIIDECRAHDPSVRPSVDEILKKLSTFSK
Outline: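 After treating HepG2 with test compounds (final 1 μM or 10 μM) for 20-24 h, we lysed cells, equalized protein by BCA and probed MLKL by overnight primary antibody at 4 °C followed by chemiluminescent detection.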

MLKL [2] = target: T1, MLKL; test: Measurement of binding affinity with MLKL receptor (competitive binding assay, Kd); design: made in house; host or cells: HEK 293 cell line (T7 phage in E. coli BL21-derived host is also described)
Outline: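 MLKL was produced in HEK 293 cells and tagged with DNA for detection. Liganded beads were blocked with excess biotin and washed to cut non-specific binding, then compounds (111× DMSO stocks, 0.9% DMSO in assay) competed for binding. Eluate kinase was measured by qPCR for Kd.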

| SMILES | Necroptosis inhibition assay (Rescue %) 1 μM (FADD−/− Jurkat cells; FADD−/− Jurkat cells) | Necroptosis inhibition assay (Rescue %) 10 μM (FADD−/− Jurkat cells; FADD−/− Jurkat cells) | Degradation assay (Degradation %) 1 μM (MLKL [1]) | Degradation assay (Degradation %) 10 μM (MLKL [1]) | Kd (MLKL [2]) | Necroptosis inhibition assay (Rescue %) 1 μM (FADD−/− Jurkat cells) | Necroptosis inhibition assay (Rescue %) 10 μM (FADD−/− Jurkat cells) |
| --- | --- | --- | --- | --- | --- | --- | --- |
| Nc1ncc(-c2cnn(C3CCN(CC4CCN(CC5CCN(C(=O)c6ccc7c(c6)CN(C6CCC(=O)NC6=O)C7=O)CC5)CC4)CC3)c2)nc1C(=O)O[C@@H](C(=O)Nc1ccc(F)cc1)c1ccccc1 (stereo partly drawn) [TDH-550, (R)-2-((4-fluorophenyl)amino)-2-oxo-1-phenylethyl 3-amino-6-(1-(1-((1-((1-(2-(2,6-dioxopiperidin-3-yl)-1-oxoisoindoline-5-carbonyl)piperidin-4-yl)methyl)piperidin-4-yl)methyl)piperidin-4-yl)-1H-pyrazol-4-yl)pyrazine-2-carboxylate] | 47.98% | 20.62% | 88.92% | 86.09% | 0.53 nM |  |  |
| Nc1ncc(-c2cnn(C3CCN(CC4CCN(CC(=O)N5CCN(c6cccc7c6C(=O)N(C6CCC(=O)NC6=O)C7=O)CC5)CC4)CC3)c2)nc1C(=O)OC(C(=O)Nc1ccc(F)cc1)c1ccccc1 (centres unmarked) [TDH-237, 2-((4-fluorophenyl)amino)-2-oxo-1-phenylethyl 3-amino-6-(1-(1-((1-(2-(4-(2-(2,6-dioxopiperidin-3-yl)-1,3-dioxoisoindolin-4-yl)piperazin-1-yl)-2-oxoethyl)piperidin-4-yl)methyl)piperidin-4-yl)-1H-pyrazol-4-yl)pyrazine-2-carboxylate] |  |  | 56.98% | 65.18% | 1.8 nM | 67.77% | 34.51% |
| Nc1ncc(-c2cnn([C@@H]3CCN(CC4CCN(C(=O)CNc5ccc6c(c5)C(=O)N(C5CCC(=O)NC5=O)C6=O)CC4)C3)c2)nc1C(=O)OC(C(=O)Nc1ccc(F)cc1)c1ccccc1 (stereo partly drawn) [TDH-286, 2-((4-fluorophenyl)amino)-2-oxo-1-phenylethyl 3-amino-6-(1-((3R)-1-((1-((2-(2,6-dioxopiperidin-3-yl)-1,3-dioxoisoindolin-5-yl)glycyl)piperidin-4-yl)methyl)pyrrolidin-3-yl)-1H-pyrazol-4-yl)pyrazine-2-carboxylate] |  |  | 71.83% | 71.94% | 12 nM | 88.45% | 79.75% |
| Nc1ncc(-c2cnn(C3CCN(C[C@H]4CC[C@H](CNC(=O)Cc5cccc(NC6=CC(=O)N(C7CCC(=O)NC7=O)C6=O)c5)CC4)CC3)c2)nc1C(=O)O[C@@H](C(=O)Nc1ccc(F)cc1)c1ccccc1 (stereo partly drawn) [TDH-498, (R)-2-((4-fluorophenyl)amino)-2-oxo-1-phenylethyl 3-amino-6-(1-(1-(((1r,4r)-4-((2-(3-((1-(2,6-dioxopiperidin-3-yl)-2,5-dioxo-2,5-dihydro-1H-pyrrol-3-yl)amino)phenyl)acetamido)methyl)cyclohexyl)methyl)piperidin-4-yl)-1H-pyrazol-4-yl)pyrazine-2-carboxylate] | 23.9% | 16.6% | 86.68% | 89.27% | 3.7 nM |  |  |

Reference: patent publication US20240252488A1 (KOREA RESEARCH INSTITUTE OF CHEMICAL TECHNOLOGY, priority 2020, published 2024)
